The source of these data is US12090204B2, “Photodynamic therapy compositions and methods of use thereof” (Pinnacle Biologics, Inc., priority 2020, dated 2024).

The conditions of data set [1]: conventional reconstituted porfimer sodium, comparison statement; cited from earlier work.
Data set [2] has as its system F. nucleatum (−). Kind of data set: porfimer sodium aPDT, planktonic culture. The data set is classed as cell-based, Fusobacterium nucleatum. The conditions noted are these: 630 nm, 50 J/cm2, porfimer sodium 125 μg/mL. The procedure:
Bacteria were routinely cultured using tryptic soy broth or agar at 37° C. in a 5% CO2 incubator. Bacteria were isolated and suspended with 0.9% NaCl to an Optical Density (OD) of 0.1 taken at 630 nm, to generate the inoculum used for either planktonic or biofilm assays.
Experiments using planktonic cultures were carried out using M. catarrhalis, as a standard for further comparisons and to determine the effective drug concentration, porfimer sodium incubation time and light dose parameters which would provide an effective cell kill at the level of 5-7 logs. Once determined the experiments were repeated for all other bacterial strains examined.
The colony forming units (CFU) per mL of the starting inoculum for every experiment was determined by dilution plating. […]
Bacteria were exposed to 630 nm laser light via a fiber optic with a lens affixed to the distal end to provide a uniform diverging light field. […] Power output of the laser was measured using a UDT/Gamma Scientific 371 optical power meter and an integrating sphere. […]
Biofilms were formed on glass coupons in culture dishes containing a bacterial inoculum for 48 hours under conditions specific to the strain. […] Power output of the laser was measured using a UDT/Gamma Scientific 371 optical power meter and an integrating sphere. […]

The subject of data set [3] is methicillin-resistant Staphylococcus aureus (MRSA), Staphylococcus aureus ATCC BAA 1768. Kind of data set: partial thickness wound model, microbial load in wound swabs (Example 4). The data set is classed as in vivo, Yorkshire pig. The conditions noted are these: for overall decrease of mean microbial load in wound swabs over the course of treatment (SD1 to SD3): untreated Group 2: 20-fold; for WOUND SWABS (CFU/mL) 24 hr. Post-Treat 2 / WOUND SWABS (CFU/mL) Immediately Post-Treat 2 / WOUND SWABS (CFU/mL) Pre-treat 2 / WOUND SWABS (CFU/mL) Pre-Treat 1: individual wounds; for WOUND SWABS (CFU/mL) Pre-Treat 1: 1.0 mg/mL. As to the method: Bacteria strains were obtained from ATCC (Manassas, VA). Bacteria were propagated from glycerol stock store at −80° C. A stab of the glycerol stock was used to inoculate 5 mL of trypticase soy broth. The cultures were incubated overnight at 37° C. with shaking at 250 rpm. The following day, a portion of overnight culture was used to prepare a streak plate onto an Oxacillin screen plate which was incubated overnight at 37° C. and single colony isolates of freshly plated bacteria were used to prepare bacterial inoculum. The morning of wounding an infection, a portion of overnight culture was used to inoculate 50 mL of trypticase soy broth and the newly inoculated media was incubated at 37° C. with shaking at 250 rpm until log phase growth was reached. The bacteria were pelleted by centrifugation at 4,000 rpm at 4° C. for 10 minutes in a Sorval tabletop centrifuge. The culture supernatant was discarded, and the bacterial pellets were suspended in a volume of sterile PBS to yield a concentration of 2×10^7 CFU/mL.
Wounds were swabbed with a sterile cotton tipped applicator in a serpentine motion starting at the upper left-hand margin of the wound and ending at the bottom right wound margin. A dry sterile cotton tipped applicator was used for all wounds. The swabs were placed into 14 mL falcon tubes containing 1 mL of sterile PBS. The tubes were vigorously vortexed and serial 10-fold dilutions of the PBS in the tubes containing the swabs were prepared. One hundred microliters of select dilutions for wound groups were plated onto agar plates. The plates were incubated at 35-37° C. and colonies enumerated manually. The data are reported as CFU/swab normalized to the volume of PBS in which the swabs were placed.
This study evaluated the ability of porfimer sodium to reduce/eliminate microbial colonization and biofilm from surgical sites in a partial thickness would healing model. The study was conducted in a single female Yorkshire pig over the course of five days. A dermatome was used to create 20 partial thickness wounds. Sixteen of the wounds were infected with methicillin-resistant Staphylococcus aureus (MRSA), and four were designated as uninfected controls. The wounds were bandaged and the bacterial biofilm allowed to develop for 48 hours.
Designated infected wounds were subjected to two courses of treatment with the test article at a periodicity of 24 hours. Article dose concentration of 1.0 mg/mL of porfimer sodium was prepared as described in Example 3, and used immediately, with the exception of two wounds (L6 and L7) where the test article (reconstituted porfimer sodium) was mixed 1:1 with NeilMed NasalGel.
Treatments consisted of application of the test article followed by photoactivation with one or two intensities of light, 150 J/cm^2 or 200 J/cm^2 (Table 3). Wounds were evaluated for microbial load prior to each course of treatment, immediately following the final treatment and 24 hours following the final treatment. Tissue specimens from infected and non-infected wounds were harvested for histology of biofilm formation at each treatment time point. Tissue specimens from treated wounds were harvested 24 hours following the final treatments for histology.

The mark [4] stands for this setting: Group 4 (200 J/cm^2), N 3, without wounds L6, R5, R9.

“And” between values parts separate entries of the source, which are not always exact repeats. Equal values may be shown once.

In the case of porfimer sodium, the “time stable when reconstituted with saline” value in data set [1] is 24 h. The Rate of kill in data set [2] came to 3Log. Besides, in data set [3] (Group 3 (150 J/cm^2), N 6), the “Mean microbial load, Posttreat 2 (swab)” value is 5.33E+03 CFU/swab; the “Mean microbial load, Pretreat 1 (swab)” value came out at 9.91E+05 CFU/swab; the “Mean microbial load, Pretreat 2 (swab)” value stood at 1.90E+05 CFU/swab. Moreover, in data set [3] (Group 3, 150 J/cm^2), the “additional decrease of mean microbial load in wound swabs following Treatment 2” value was found to be 36 fold, the “decrease of mean microbial load in wound swabs following treatment 1 (SD1 to SD2)” value is listed as 5.2 fold and the “overall decrease of mean microbial load in wound swabs over the course of treatment (SD1 to SD3)” value came to 186 fold. Further, in data set [3] (Group 3 = 150 J/cm2 treatment), the “WOUND SWABS (CFU/mL) 24 hr. Post-Treat 2” value was 1.14E+04 CFU/mL and 1.17E+04 CFU/mL and 3.50E+02 CFU/mL and 2.65E+03 CFU/mL and 4.30E+03 CFU/mL; the “WOUND SWABS (CFU/mL) Immediately Post-Treat 2” value was 1.92E+05 CFU/mL and 6.16E+03 CFU/mL; the “WOUND SWABS (CFU/mL) Pre-treat 2” value was 8.80E+04 CFU/mL and 6.60E+05 CFU/mL and 2.74E+03 CFU/mL and 4.20E+04 CFU/mL and 3.45E+05 CFU/mL; the “WOUND SWABS (CFU/mL) Pre-Treat 1” value is 6.30E+05 CFU/mL and 3.03E+06 CFU/mL and 2.88E+05 CFU/mL and 4.00E+03 CFU/mL and 5.40E+04 CFU/mL. Moreover, in data set [3] (setting [4]), the “Mean microbial load, Posttreat 2 (swab)” value was found to be 1.16E+03 CFU/swab; the “Mean microbial load, Pretreat 1 (swab)” value was determined as 8.53E+05 CFU/swab; the “Mean microbial load, Pretreat 2 (swab)” value is given as 5.11E+05 CFU/swab. In data set [3] (Group 4, 200 J/cm^2), the “additional decrease of mean microbial load in wound swabs following Treatment 2” value was 250 fold, the “decrease of mean microbial load in wound swabs following treatment 1 (SD1 to SD2)” value is 1.7 fold and the “overall decrease of mean microbial load in wound swabs over the course of treatment (SD1 to SD3)” value was found to be 735 fold. In data set [3] (Group 4 = 200 J/cm2 treatment), the “WOUND SWABS (CFU/mL) 24 hr. Post-Treat 2” value was 1.55E+03 CFU/mL and 1.79E+02 CFU/mL and 1.75E+03 CFU/mL and 3.15E+03 CFU/mL and 2.31E+02 CFU/mL; the “WOUND SWABS (CFU/mL) Immediately Post-Treat 2” value was 4.20E+04 CFU/mL and 2.80E+04 CFU/mL; the “WOUND SWABS (CFU/mL) Pre-treat 2” value was 1.40E+04 CFU/mL and 2.00E+04 CFU/mL and 1.50E+06 CFU/mL and 1.44E+06 CFU/mL and 7.60E+00 CFU/mL; the “WOUND SWABS (CFU/mL) Pre-Treat 1” value is 2.42E+05 CFU/mL and 2.60E+04 CFU/mL and 2.29E+06 CFU/mL and 0.00E+00 CFU/mL (2×). Also, the “consistency of results when applied directly to infected wounds” value in data set [3] (porfimer sodium mixed in saline) is “inconsistency in the results”.
